Laboratory results taken from paper PMC9948614, “Structural and functional properties of the Kunitz-type and C-terminal domains of Amblyomin-X supporting its antitumor activity” (Frontiers in Molecular Biosciences, 2023).
Where two headings read alike, the source gives them in different places. No end group written: not given here.

Key:
[1] = system: MIA PaCa-2; assay: MTT cell viability assay; assay type: cell-based, human; settings: 48 h
Experimental: (§1) Cell viability was measured by 3-(4,5-dimethylthiazol-2-yl)-2,5-diphenyltetrazolium bromide (MTT) assay, as described elsewhere ([Morais et al., 2016]). […] After 48h, 10% of 5 mg/ml MTT was added to the cells and the plates were incubated for 3 h at 37 °C. Afterward, the medium was discarded, the dark blue formazan crystalline product was dissolved in 100 µL dimethyl sulfoxide (DMSO), and the absorbance was measured in a Spectra MAX 190 microplate reader (Molecular Devices, Sunnyvale, United States) at 540 nm.
(§2) Amblyomin-X (50 μM) were used for comparative purpose. Besides, staurosporine (5 μM), MG-132 (3 μM) and bortezomib (80 nM) were used as a positive control.

[2] = system: SK-MEL-28; assay: MTT cell viability assay; settings: 48 h
Experimental: as §1, §2

[3] = system: SK-MEL-28; settings: for Vesicles counts: SK-MEL-28, Alexa-Fluor 488-labeled molecule 20 µM, 37°C, ImageXpress Micro Confocal, mean ± SD of three independent experiments
Experimental: (§3) An additional step was carried out for the purification of peptides using FPLC. SK-MEL-28 and MIA PaCa-2 (10^5 cells/well) were seeded on sterile 35 mm culture dishes. First, a cell-based assay using fluorochrome conjugated molecules was carried by incubation with Amblyomin-X and its synthetic domains (20 µM) in a fresh medium at 37°C for 4 h and nuclei were stained with […] Syto59 (Invitrogen Life Technologies Inc., United States). Then red and green fluorescence were monitored by LSM 510 Meta confocal microscope (Zeiss, Jena, Germany). […] After treatment with synthetic fragments (all at 5 µM) in a fresh medium at 37°C for 4h, tumor cells were scanned on the x-, y-, and z-axes using a confocal microscope TCS SP8 (Leica Microsystems, GmbH Mannheim, DE) with 40x/1.1 objective lens and laser excitation at 405 and 488 nm with additional brightfield channel using the LAS X software (Leica Microsystems, GmbH Mannheim, DE). The images were deconvolved in Huygens Essential version 22.04 (Scientific Volume Imaging, Netherlands).
(§4) Following the same rationale, after treatment, cells were incubated with Alexa Fluor 555 TrF (100 μg/ml), Alexa Fluor 555 CTxB (50 μg/ml) or Alexa Fluor 555 dextran (1 mg/ml) in the binding medium at 37 °C for 20 min. Also, to evaluate cargo-delivery ability of C-ter, tumor cells were incubated with p15 (100 μM) or this molecule conjugate to C-ter (100 μM) for 4 h. […] Finally, evaluation of C-ter derived fragments (all at 10 μM) were investigated after 4 h of treatment.
(§5) In all 96 wells plate assays, nuclei were stained with Hoechst 33342 and fluorescence was monitored by a Molecular Devices ImageXpress Micro Confocal plate-scanning microscope (Molecular Devices, Sunnyvale, CA). Vesicles count were analyzed using MetaXpress software (Molecular Devices, CA) with Transfluor Application Module.

[4] = system: SK-MEL-28; assay: Cellular uptake by confocal laser scanning microscopy; settings: SK-MEL-28, Alexa Fluor 488-labeled molecule 20 µM, 4 h, 37°C
Experimental: as §3

[5] = system: SK-MEL-28; settings: for Uptake of fluorescent (FITC) peptide by cells: SK-MEL-28, 5 or 10 µM, 6 h, ImageXpress Micro Confocal / confocal TCS SP8
Experimental: An additional step was carried out for the purification of peptides using FPLC. SK-MEL-28 and MIA PaCa-2 (10^5 cells/well) were seeded on sterile 35 mm culture dishes. […] […] The images were deconvolved in Huygens Essential version 22.04 (Scientific Volume Imaging, Netherlands).
Following the same rationale, after treatment, cells were incubated with Alexa Fluor 555 TrF (100 μg/ml), Alexa Fluor 555 CTxB (50 μg/ml) or Alexa Fluor 555 dextran (1 mg/ml) in the binding medium at 37 °C for 20 min. Also, to evaluate cargo-delivery ability of C-ter, tumor cells were incubated with p15 (100 μM) or this molecule conjugate to C-ter (100 μM) for 4 h. […]
as §5

[6] = system: dynein chains; assay: Gene expression of dynein chains by real-time PCR; assay type: cell-based, human
Experimental: Gene expression was evaluated via quantitative real-time polymerase chain reaction (qPCR) according to standard protocols previously reported by our group ([Pacheco et al., 2014]; [Morais et al., 2016]). Briefly, after cell treatment, the total RNA was extracted using the RNeasy kit (Qiagen, Netherlands) followed by DNase treatment, Then, cDNA strands were constructed using a SuperScript® III First-Strand Synthesis kit (InvitrogenTM, Life Technologies Inc., United States), according to manufacturer’s instructions. Finally, the samples were applied in a SYBR® green (Applied Biosystems, United States)-based reaction with specific and validated primers to evaluate mRNA levels of genes coding for dynein chains. RNA levels were normalized to glyceraldehyde 3-phosphate dehydrogenase (GAPDH) and quantified using the Livak 2^−ΔΔCT method ([Livak and Schmittgen, 2001]). The experiments were conducted by Step One Plus® PCR real-time system (Applied Biosystems, United States).

[7] = system: MIA PaCa-2; settings: MIA PaCa-2, Alexa-Fluor 488-labeled molecule 20 µM, 37°C, ImageXpress Micro Confocal, Transfluor module, mean ± SD of three independent experiments
Experimental: as §3, §4, §5

[8] = target: T1, FXa (Homo sapiens, UniProt P00742); assay: FXa activity assay, chromogenic substrate S-2765; assay type: biochemical; settings: FXa 40 nM, 30 min 37 °C, 20 mM Tris–HCl, PS/PC 2 µM, 5 mM CaCl2, pH 8.0, S-2765 200 µM, 405 nm
T1 construct: the active factor X (FXa)
Experimental: Supplementary material 1 - FXa activity assays - FXa (40 nM) was incubated with varying concentrations of the Amblyomin-X recombinant protein and the synthetic domains for 30 min at 37 °C in 20 mM Tris–HCl containing PS/PC (2 µM) and 5 mM CaCl2, pH 8.0. Cleavage of the chromogenic substrate S-2765 (200µM, Chromogenix, UK) was monitored at 405 nm (SpectraMax 190, Molecular Devices, USA). The percentage of inhibition was determined from the residual activity of the enzymes as previously reported15, 16.

[9] = system: SK-MEL-28; assay: Microinjection assay, cell death by PI staining; assay type: cell-based, human; settings: SK-MEL-28, microinjection of 488-labeled molecule, both 20 µM, 4 h; about 50 cells per condition
Experimental: SK-MEL-28 cells were plated on glass Cellocate coverslips for 24 h before injection. […] Staurosporine (10 µM) was added directly to the medium for 6 h and was used as a control for PI staining. Ctrl cells were maintained in a culture medium. The solution was injected into the cytoplasm an average of 50 cells for each condition (compensation pressure: 30 hPa; injection pressure: 100 hPa; injection time: 0.3 s). Immediately after injection, cells were replaced with fresh medium in the incubator at 37 °C. After 4 h, cells were stained with PI (1 μg/ml – contain RNAse A 100 ng/ml) for 15 min at r.t.. Then, cells were washed twice with 1X PBS and fixed with 4% paraformaldehyde for 15 min at r.t... Finally, cells were washed with 1X PBS and one drop of solution anti-fade mounting Vectashield® (Vecta Labs) was applied on the slide with the coverslip containing the cells facing down and, then, sealed. The analysis was performed in Leica SP8 confocal microscope (Leica, Germany): Green fluorescence was used to identify microinjected cells and red fluorescence to score cell death.

[10] = MIA PaCa-2, synthetic domains 0.2–100 μM
[11] = SK-MEL-28, synthetic domains 0.2–100 μM
[12] = tumor cells, other fragments and TAT-Kunitz data not shown

T1 sequence (P00742 235-488 limits assumed): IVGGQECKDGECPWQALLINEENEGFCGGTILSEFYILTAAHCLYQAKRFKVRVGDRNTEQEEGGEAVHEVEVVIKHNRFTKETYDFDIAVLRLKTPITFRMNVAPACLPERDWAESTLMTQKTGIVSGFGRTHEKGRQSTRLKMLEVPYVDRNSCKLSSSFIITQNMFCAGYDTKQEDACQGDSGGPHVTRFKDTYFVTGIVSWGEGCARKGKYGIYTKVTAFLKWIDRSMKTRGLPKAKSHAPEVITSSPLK
T1 sequence (P00742 41-179 partner limits assumed): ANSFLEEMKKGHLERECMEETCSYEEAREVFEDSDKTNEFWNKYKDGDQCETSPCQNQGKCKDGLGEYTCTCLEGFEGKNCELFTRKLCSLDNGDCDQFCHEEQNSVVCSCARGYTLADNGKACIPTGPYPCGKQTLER

## C^#WMSPRHLGT C^#EEQTHFHFESPKLISFKVQDYWILNDIMKKNLTGISLKSEEEDADSGEID (disulfide) [p15-C-ter]
[1]; MIA PaCa-2, 100 μM
  Effect on cell viability (MTT): decreased cell viability
[2]; SK-MEL-28, 100 μM
  Effect on cell viability (MTT): decreased cell viability
[3]
  Internalization relative to the non-conjugated molecule (p15): eight-fold more internalized

## GRKKRRQRRRPPQANSKAVCNLPKLAGDETCSNKTEIRWYYNGTACEAFIFKGCGGNDNNFDRVDDCQRLC-NH2 (also: bicyclic or more (positions not given here)) [TAT-Kunitz]
[2]; TAT-Kunitz at 20 and 50 μM, cell line not stated at the place (Figure 7B)
  Cytotoxicity (MTT): significant cytotoxicity activity

## EEQTHFHFESPKLIFKVQDYWILNDIMKKNLTGISLKSEEEDADSGEID [C-ter]
[4]
  Uptake by cells (green fluorescence, confocal): uptaken
[5]
  Uptake of fluorescent (FITC) peptide by cells: uptaken
[5]; SK-MEL-28, fluorescent peptides 10 µM, all treatments investigated
  Cells counts per well: No alterations in cells counts
[1]; [10]
  Effect on cell viability (MTT): no alteration
[2]; [11]
  Effect on cell viability (MTT): no alteration
[6]; [12]
  Gene expression of dynein chains: modulated gene expression of dynein chains
[7]; 0.25 h
  Vesicles counts: 4.36 ± 2.03
[7]; 0.5 h
  Vesicles counts: 17.50 ± 24.63
[7]; 1 h
  Vesicles counts: 10.59 ± 7.15
[7]; 2 h
  Vesicles counts: 171.11 ± 248.57
[7]; 4 h
  Vesicles counts: 802.63 ± 353.12
[3]; 0.25 h, MetaXpress Transfluor module
  Vesicles counts: 30.84 ± 17.2
[3]; 0.5 h, Transfluor module
  Vesicles counts: 35.56 ± 21.09
[3]; 1 h, Transfluor module
  Vesicles counts: 62.17 ± 11.20
[3]; 2 h, Transfluor module
  Vesicles counts: 558.48 ± 189.00
[3]; 4 h, Transfluor module
  Vesicles counts: 1210.74 ± 379.14

## FKVQDYWILNDIMKKNLTGI* [F2C, C-ter derived fragment 16-35, minimum length C-terminal domain able to enter SK-MEL-28 cells]
[5]; SK-MEL-28, 10 µM, even in short times of treatment
  Relative fluorescence units (RFU) compared with other peptides: higher values of relative fluorescence units (RFU)
[5]
  Uptake of fluorescent (FITC) peptide by cells: detected in the cell
[6]; SK-MEL-28, 5 µM, 24 h, real-time PCR, normalized to GAPDH
  Gene expression of dynein chains: modulate gene expression of all dynein chains evaluated
[6]; [12]
  Gene expression of dynein chains: modulated gene expression of dynein chains

## ANSKAVCNLPKAGDETCSNKTEIRWYYNGTACEAFIFKGCGGNDNNFDRVDDCQRLC-NH2 (also: bicyclic or more (positions not given here)) [Kunitz]
[4]
  Uptake by cells (green fluorescence, confocal): not detected inside the cells
[8]
  Inhibitory activity against FXa: lower inhibitory activity against FXa than TFPI-K2
[1]; [10]
  Effect on cell viability (MTT): no alteration
[2]; [11]
  Effect on cell viability (MTT): no alteration
[3]
  Number of vesicles relative to complete Amblyomin-X: ten-fold less
[9]
  Propidium iodide (PI) staining after microinjection: 26%
